Values quoted from earlier work as cited in patent US6699701B1, “Method and device for sanitation using bacteriophages” (priority 2000, dated 2004).

Test system: bacterial counts
Settings: fresh-cut fruits, most effective chemical sanitizer

SMILES: OO [hydrogen peroxide]
- maximum reduction rate in bacterial counts: ≤ 1.3 logs
